Molecules are shown by their SMILES.

This assay concerns compound 48/80-induced lethality. Description: Protection of rats from compound 48/80-induced lethality. Type of assay: in vivo, rat (male, inbred Wistar strain). To be noted: Rattus norvegicus; test compound subcutaneously or orally (route not specified per compound); compound 48/80 0.5 mg/kg i.v. one hour after treatment; survival after 4 hours; protection of 50% of animals; read-out: compound 48/80 lethality test in rate-ED50. On the procedure:
Protection of rats from compound 48/80-induced lethality
The protection from compound 48/80-induced lethal circulatory collapse appears to be a simple way of evaluating quantitatively the antihistaminic activity of test compounds. Male rats of an inbred Wistar strain, weighting 240-260 g were used in the experiment. After overnight starvation the rats were transferred to conditioned laboratories (temp. =21±1° C., relative humidity =65±5%).
The rats were treated subcutaneously or orally with a test compound or with the solvent (NaCl solution, 0.9%). One hour after treatment there was injected intravenously compound 48/80, freshly dissolved in water, at a dose of 0.5 mg/kg (0.2 ml/100 g of body weight). In control experiments, wherein 250 solvent-treated animals were injected with the standard dose of compound 48/80, not more than 2.8% of the animals survived after 4 hours. Survival after 4 hours is therefore considered to be a safe criterion of a protective effect of drug administration. Said ED50 -values are the values in mg/kg body weight at which the tested compounds protect 50% of the tested animals against compound 48/80-inducedlethality.
`CCCCN1CCC(Nc2nc3cccnc3n2Cc2ccc(C)o2)CC1` [Compound 37]: the ED50 was found to be 0.02 mg/kg. For `CCCCCCN1CCC(Nc2nc3cccnc3n2Cc2ccc(C)o2)CC1` [Compound 39] the value was 0.04 mg/kg; for `COc1ccc(CCN2CCC(Nc3nc4cccnc4n3Cc3cc(C)co3)CC2)cc1` [Compound 64], 0.04 mg/kg; for `Cc1coc(Cn2c(NC3CCN(CCn4c(=O)[nH]c5ccccc54)CC3)nc3cccnc32)c1` [Compound 63], 0.04 mg/kg.

Turning to `Cc1ccc(Cn2c(NC3CCN(CCCn4c(=O)[nH]c5ccccc54)CC3)nc3cccnc32)o1` [Compound 38], the ED50 turned out to be 0.02 mg/kg. Take `Cc1ccc(Cn2c(NC3CCN(C/C=C/c4ccccc4)CC3)nc3cccnc32)o1` [Compound 6]: the ED50 came out at 0.04 mg/kg. Turning to `Cc1ccc(Cn2c(NC3CCN(CCc4cccs4)CC3)nc3cccnc32)o1` [Compound 15], the ED50 came to 0.04 mg/kg. Turning to `Cc1ccc(Cn2c(NC3CCN(C)CC3)nc3cccnc32)o1` [Compound 1], the ED50 came out at 0.005 mg/kg.

`CNC(=O)NCCN1CCC(Nc2nc3ccccc3n2Cc2ccc(C)o2)CC1` [Compound 40, N-methyl-N'-[2-[4-[[1-[(5-methyl-2-furanyl)methyl]-1H-benzimidazol-2-yl]amino]-1-piperidinyl]ethyl]urea]: the ED50 was 0.02 mg/kg. With `CCN1CCC(Nc2nc3cccnc3n2Cc2ccc(C)o2)CC1.O=C(O)/C=C/C(=O)O.O=C(O)/C=C/C(=O)O` [Compound 4, N-(1-ethyl-4-piperidinyl)-3-[(5-methyl-2-furanyl)methyl]-3H-imidazo[4,5-b]-pyridin-2-amine (E)-2-butenedioate(1:2)], the ED50 amounted to 0.0025 mg/kg. On to `Cc1ccc(Cn2c(NC3CCN(CC(O)COc4ccccc4)CC3)nc3cccnc32)o1` (stereo not shown) [Compound 26], for which the ED50 amounted to 0.04 mg/kg. For the compound `CCn1nnn(CCN2CCC(Nc3nc4ccccc4n3Cc3ccc(C)o3)CC2)c1=O.O=C(O)C(=O)O.O=C(O)C(=O)O` [Compound 22, 1-ethyl-1,4-dihydro-4-[2-[4-[[1-[(5-methyl-2-furanyl)methyl]-1H-benzimidazol-2-yl]-amino]-1-piperidinyl]ethyl]-5H-tetrazol-5-one ethanedioate(1:2)], the ED50 was determined as 0.04 mg/kg. With `CCN1CCC(Nc2nc3ccccc3n2Cc2ccc(C)o2)CC1` [Compound 11], the ED50 came out at 0.01 mg/kg.

For the compound `CCc1ccc(Cn2c(NC3CCN(C)CC3)nc3cccnc32)o1` [Compound 29], the ED50 was found to be 0.04 mg/kg. On to `Cc1ccc(Cn2c(NC3CCN(CCn4c(=O)[nH]c5ccccc54)CC3)nc3cccnc32)o1` [Compound 9], for which the ED50 is 0.02 mg/kg. Take `Cc1ccoc1Cn1c(NC2CCN(C)CC2)nc2cccnc21` [Compound 56]: the ED50 is 0.04 mg/kg. For the compound `CCCCCN1CCC(Nc2nc3cccnc3n2Cc2ccc(C)o2)CC1` [Compound 42], the ED50 turned out to be 0.04 mg/kg. For `CC(=O)CCCN1CCC(Nc2nc3cccnc3n2Cc2ccc(C)o2)CC1` [Compound 18] the value was 0.01 mg/kg. Regarding `CCn1nnn(CCN2CCC(Nc3nc4cccnc4n3Cc3ccc(C)o3)CC2)c1=O` [Compound 10], the ED50 is 0.04 mg/kg. Consider `CC(=O)CCN1CCC(Nc2nc3cccnc3n2Cc2ccc(C)o2)CC1` [Compound 41], for which the ED50 worked out at 0.01 mg/kg. For `Cc1occc1Cn1c(NC2CCN(CCn3c(=O)[nH]c4ccccc43)CC2)nc2cccnc21` [Compound 53] the value was 0.04 mg/kg; for `COc1ccc(CCN2CCC(Nc3nc4ccccc4n3Cc3ccc(C)o3)CC2)cc1` [Compound 13], 0.04 mg/kg; for `CCOCCN1CCC(Nc2nc3cccnc3n2Cc2ccc(C)o2)CC1` [Compound 7], 0.02 mg/kg. As to `Cc1ccc(Cn2c(NC3CCN(CCCC(=O)c4ccc(F)cc4)CC3)nc3cccnc32)o1` [Compound 46], the ED50 was determined as 0.04 mg/kg.

On to `Cc1occc1Cn1c(NC2CCN(C)CC2)nc2cccnc21` [Compound 36], for which the ED50 came to 0.04 mg/kg.

Regarding `C=CCN1CCC(Nc2nc3cccnc3n2Cc2ccc(C)o2)CC1.O=C(O)/C=C/C(=O)O.O=C(O)/C=C/C(=O)O` [Compound 5, 3-[(5-methyl-2-furanyl)methyl]-N-[1-(2-propenyl)-4-piperidinyl]-3H-imidazo-[4,5-b]pyridin-2-amine (E)-2-butenedioate(1:2)], the ED50 was determined as 0.005 mg/kg. With `Cc1coc(Cn2c(NC3CCN(C)CC3)nc3cccnc32)c1` [Compound 62], the ED50 was 0.005 mg/kg. Consider `Cc1ccc(Cn2c(NC3CCN(CCCOc4ccccc4)CC3)nc3cccnc32)o1` [Compound 8], for which the ED50 turned out to be 0.04 mg/kg.

These data come from patent publication US5006527A, “Pharmacologically active N-(4-piperidinyl) bicyclic condensed 2-imidazolamine derivatives” (Janssen Pharmaceutica N.V., priority 1989, dated 1991).
